Results reported in US20240018125A1, “CYCLIC ISOTHIOUREA DERIVATIVES AS CXCR4 MODULATORS” (ERMIUM THERAPEUTICS, priority 2020, published 2024).
Counter-ions that a name gives are not always drawn.

Key:
Male C57BL/6 Rj mice = test: In vivo evaluation of CXCR4 antagonistic activity by mobilisation of blood cells; design: species or system mouse; settings: 30 mg/kg single i.p., 2:30 h after injection; shown also for neutrophils, monocytes, lymphocytes, eosinophils
Protocol: Male C57BL/6 Rj mice (7 weeks old) were obtained from Janvier (Le Genest-Saint-Isle, France). Mice were treated by a single intraperitoneal (i.p.) administration at timepoint 0 h. The experimental groups (n=10) were defined as follows: • Mice of group 1 were treated with vehicle only (0.9% NaCl aqueous solution) • Mice of group 2 were treated with AMD3100 (CXCR4 antagonist, Sigma-Aldrich, St Louis, USA) at 20 mg/kg (volume of 10 mL/kg) in 0.9% NaCl aqueous solution • Mice of group 3 were treated with an exemplary compound of formula (I), i.e. Example 60, at 30 mg/kg (volume of 10 mL/kg) in 0.9% NaCl aqueous solution
After 2:30 h, whole blood (at least 200 μl, max 1 mL) was collected in EDTA tubes before sacrifice by an intracardiac puncture under isoflurane anaesthesia and haematology parameters were determined the same day by laser flow cytometry, optical fluorescence and Laminar Flow Impedance™ using the ProCyte Dx hematology analyser (IDEXX, Eau Claire, USA). Differential leukocyte counts were performed to quantify specific immune cell types. Data are reported as total number of cells (K/μL), mean±S.E.M., as well as the statistical significance versus the vehicle control group using unpaired t-tests.

[1] = tested on: peripheral blood mononuclear cells (PBMCs) from healthy donors; test: IFN production by R848-activated PBMCs, quantified with twINNE luciferase reporter cell line; type: cell-based, human; settings: Homo sapiens, PBMC; read-out: IC50 of anti-inflammatory activity (IFN production by activated PBMCs)
In short: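 Healthy-donor PBMCs (4.10^6/mL, RPMI/10% FBS) were pre-treated with compound, then stimulated with R848 at 5 μg/mL for 24 h. Supernatants were put on twINNE cells, which carry luciferase under five ISREs, for 24 h, and Bright-Glo luminescence was read. IC50 values came from variable-slope dose-response fits.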

Clc1ccc2c(c1)CN=C(SCCCCN1CCCC1)N2 [Example 60, 6-chloro-2-((4-(pyrrolidin-1-yl)butyl)thio)-1,4-dihydroquinazoline dihydrochloride]
numbers of white blood cells in the blood vs vehicle control (Male C57BL/6 Rj mice): not increased
IC50 [1]: ≤ 10 µM
